How the values were obtained:
[1] = biological target: T1, Metabotropic glutamate receptor 5 (Rattus norvegicus, UniProt P31424); assay: Displacement of [3H]-M-MPEP from rat cerebrocortical mGluR5 receptor
[2] = biological target: T1, Metabotropic glutamate receptor 5; assay: Negative allosteric modulation of mGlu5 receptor in primary E17 rat embryo neuron assessed as ca2+ level by fluo-4/AM assay
Liver microsome [3] = assay: Intrinsic clearance in human liver microsomes measured per gram of tissue at 2.5 uM; assay type: ADME
Liver microsome [4] = assay: Intrinsic clearance in Wistar rat liver microsomes measured per gram of tissue at 2.5 uM; assay type: ADME

T1 sequence (P31424 whole entry): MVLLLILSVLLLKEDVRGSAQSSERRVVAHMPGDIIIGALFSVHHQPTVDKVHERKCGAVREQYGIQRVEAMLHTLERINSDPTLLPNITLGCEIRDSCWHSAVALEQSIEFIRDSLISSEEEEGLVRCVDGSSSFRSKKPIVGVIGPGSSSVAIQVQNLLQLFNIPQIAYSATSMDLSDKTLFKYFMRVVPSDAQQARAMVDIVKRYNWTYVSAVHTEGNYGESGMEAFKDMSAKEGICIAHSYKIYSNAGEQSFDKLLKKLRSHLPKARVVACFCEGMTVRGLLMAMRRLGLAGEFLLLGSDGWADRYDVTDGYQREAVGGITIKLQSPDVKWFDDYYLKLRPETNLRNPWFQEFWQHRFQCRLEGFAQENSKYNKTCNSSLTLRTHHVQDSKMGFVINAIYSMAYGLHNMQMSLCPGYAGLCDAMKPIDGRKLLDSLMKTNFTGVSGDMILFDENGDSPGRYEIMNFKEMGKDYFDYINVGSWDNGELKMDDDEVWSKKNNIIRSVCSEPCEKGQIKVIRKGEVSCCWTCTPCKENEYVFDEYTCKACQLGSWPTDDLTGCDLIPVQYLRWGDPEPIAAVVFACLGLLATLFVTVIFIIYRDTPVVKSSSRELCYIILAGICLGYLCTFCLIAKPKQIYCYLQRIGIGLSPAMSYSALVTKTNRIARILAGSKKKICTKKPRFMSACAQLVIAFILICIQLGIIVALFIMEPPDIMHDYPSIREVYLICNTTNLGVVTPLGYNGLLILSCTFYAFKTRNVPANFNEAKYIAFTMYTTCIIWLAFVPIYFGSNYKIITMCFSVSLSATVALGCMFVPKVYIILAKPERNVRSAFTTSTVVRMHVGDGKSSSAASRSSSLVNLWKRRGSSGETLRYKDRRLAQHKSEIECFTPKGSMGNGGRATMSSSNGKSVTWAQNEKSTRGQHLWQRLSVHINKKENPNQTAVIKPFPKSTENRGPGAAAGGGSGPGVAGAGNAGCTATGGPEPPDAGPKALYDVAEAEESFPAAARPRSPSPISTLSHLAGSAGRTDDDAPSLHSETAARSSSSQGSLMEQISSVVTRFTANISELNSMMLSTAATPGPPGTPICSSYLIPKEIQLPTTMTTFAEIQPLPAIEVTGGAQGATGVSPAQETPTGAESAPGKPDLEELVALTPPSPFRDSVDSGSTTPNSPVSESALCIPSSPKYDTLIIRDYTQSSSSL

Structure (SMILES) | Ki [1] [µM] | IC50 [2] [µM] | CLH (Liver microsome [3]) [mL/min/g] | CLH (Liver microsome [4]) [mL/min/g]
CN(C)c1ccc(S(=O)(=O)c2sc3ncccc3c2-c2ccc(Cl)cc2)cc1 | 0.052 |  |  | 
O=S(=O)(c1ccc(Cl)cc1)c1sc2ncccc2c1-c1cccc(F)c1 | 0.038 | 0.123 | 2.3 | 4.1
COc1ccc(-c2c(S(=O)(=O)c3cccc(C#N)c3)sc3ncccc23)cc1 | 0.023 |  | 2.7 | 13.5
O=S(=O)(c1cccc(Cl)c1)c1sc2ncccc2c1-c1ccc(Cl)cc1 | 0.0159 |  |  | 
O=S(=O)(c1cccnc1)c1sc2ncccc2c1-c1ccc(Cl)cc1 | 0.289 |  |  | 
Nc1ccnc2sc(S(=O)(=O)c3ccc(Cl)cc3)c(-c3ccc(Cl)cc3)c12 | 0.0148 |  | 2.9 | 10.1
O=S(=O)(c1ccc(Cl)cc1)c1sc2nc(F)ccc2c1-c1ccc(Cl)cc1 | 0.026 | 0.172 | 0.1 | 3.8
O=S(=O)(c1ccc(Cl)cc1)c1sc2ncccc2c1-c1ccc(F)cc1F | 0.027 |  | 3.3 | 11.1
Nc1ccc2c(-c3ccc(Cl)cc3)c(S(=O)(=O)c3ccc(Cl)cc3)sc2n1 | 0.083 | 0.374 | 0.01 | 0.5
Cc1ccc(-c2c(S(=O)(=O)c3ccc(Cl)cc3)sc3ncccc23)cc1 | 0.021 | 0.111 | 3.9 | 15.7
O=S(=O)(c1ccccc1)c1sc2ncccc2c1-c1ccc(Cl)cc1 | 0.096 |  |  | 
O=S(=O)(c1ccc(Cl)cc1)c1sc2ncccc2c1-c1cccc(Cl)c1 | 0.037 |  | 1.3 | 2.8
O=S(=O)(c1ccc(Cl)cc1Cl)c1sc2ncccc2c1-c1ccc(Cl)cc1 | 0.105 |  |  | 
O=S(=O)(c1cccc(F)c1)c1sc2ncccc2c1-c1ccc(Cl)cc1 | 0.043 |  |  | 
Cc1cc(C)cc(S(=O)(=O)c2sc3ncccc3c2-c2ccc(Cl)cc2)c1 | 0.024 |  |  | 
N#Cc1cc(F)cc(S(=O)(=O)c2sc3nc(Cl)ccc3c2-c2ccc(F)cc2)c1 | 0.02 |  | 0.6 | 2.1
COc1ccc(S(=O)(=O)c2sc3ncccc3c2-c2ccc(Cl)cc2)cc1 | 0.02 |  |  | 
N#Cc1ccc(S(=O)(=O)c2sc3ncccc3c2-c2ccc(Cl)cc2)cc1 | 0.036 |  |  | 
Nc1cnc2sc(S(=O)(=O)c3ccc(Cl)cc3)c(-c3ccccc3F)c2c1 | 0.058 |  | 1.9 | 2.8

Structure (SMILES) | Ki [1] [µM] | IC50 [2] [µM] | CLH (Liver microsome [3]) [mL/min/g] | CLH (Liver microsome [4]) [mL/min/g]
O=S(=O)(c1ccc(Cl)cc1)c1sc2ncc(F)cc2c1-c1ccc(Cl)cc1 | 0.124 |  | 0.3 | 1.7
N#Cc1cc(F)cc(S(=O)(=O)c2sc3ncc(N)cc3c2-c2cccc(Cl)c2)c1 |  | 0.038 | 0.9 | 1.5
N#Cc1cc(F)cc(S(=O)(=O)c2sc3ncc(N)cc3c2-c2ccncc2Cl)c1 | 0.044 |  | 1 | 0.7
O=S(=O)(c1ccc(Cl)cc1)c1sc2ncccc2c1-c1cnccc1F | 0.061 |  | 2.6 | 10.5
Cc1ccc(S(=O)(=O)c2sc3ncccc3c2-c2ccc(Cl)cc2)cc1 | 0.0154 |  |  | 
O=S(=O)(c1ccc(F)cc1)c1sc2ncccc2c1-c1ccc(Cl)cc1 | 0.0156 |  |  | 
CN(C)c1ccnc2sc(S(=O)(=O)c3ccc(Cl)cc3)c(-c3ccc(Cl)cc3)c12 | 0.026 |  | 3.8 | 9.5
O=S(=O)(c1ccc(Cl)cc1)c1sc2ncccc2c1-c1ccc(Cl)c(Cl)c1 | 0.031 |  | 2.5 | 9.7
O=S(=O)(c1cccc(C(F)(F)F)c1)c1sc2ncccc2c1-c1ccc(Cl)cc1 | 0.054 |  |  | 
CC(C)c1ccc(S(=O)(=O)c2sc3ncccc3c2-c2ccc(Cl)cc2)cc1 | 0.066 |  |  | 
N#Cc1cc(F)cc(S(=O)(=O)c2sc3ncc(N)cc3c2-c2c(F)cncc2F)c1 | 0.019 |  | 0.4 | 0.8
O=S(=O)(c1ccc(C(F)(F)F)cc1)c1sc2ncccc2c1-c1ccc(Cl)cc1 | 0.272 |  |  | 
O=S(=O)(c1cc(F)cc(C(F)(F)F)c1)c1sc2ncccc2c1-c1ccc(Cl)cc1 | 0.041 |  |  | 
COc1ccc2c(-c3ccc(Cl)cc3)c(S(=O)(=O)c3ccc(Cl)cc3)sc2n1 | 0.652 |  | 0.01 | 2.6
CS(=O)(=O)Nc1cnc2sc(S(=O)(=O)c3ccc(Cl)cc3)c(-c3ccc(Cl)cc3)c2c1 | 0.166 |  | 0.4 | 1.1
O=S(=O)(c1ccc(Cl)cc1)c1sc2nccc(F)c2c1-c1ccc(Cl)cc1 | 0.214 |  | 3.6 | 12.1
N#Cc1cccc(S(=O)(=O)c2sc3ncc(N)cc3c2-c2cccc(Cl)c2)c1 | 0.0143 |  | 0.01 | 0.01
O=S(=O)(c1cc(F)cc(F)c1)c1sc2ncccc2c1-c1ccc(Cl)cc1 | 0.036 |  |  | 

Continued by falling Ki [1], values first:

Ki [1] [µM] | IC50 [2] [µM] | CLH (Liver microsome [3]) [mL/min/g] | CLH (Liver microsome [4]) [mL/min/g] | Structure (SMILES)
0.0142 | 0.044 | 3.3 | 17.7 | Cc1cccc(-c2c(S(=O)(=O)c3cccc(C#N)c3)sc3ncccc23)c1
0.0136 | 0.022 | 0.9 | 1 | N#Cc1cc(F)cc(S(=O)(=O)c2sc3ncccc3c2-c2cnccc2F)c1
0.013 |  | 3.7 | 4.3 | N#Cc1cc(F)cc(S(=O)(=O)c2sc3ncccc3c2-c2ccoc2)c1
0.0118 |  |  |  | Cc1ccc(S(=O)(=O)c2sc3ncccc3c2-c2ccc(Cl)cc2)cc1F
0.0107 |  |  |  | O=S(=O)(c1ccc(Cl)c(Cl)c1)c1sc2ncccc2c1-c1ccc(Cl)cc1
0.0095 |  |  |  | COc1cccc(S(=O)(=O)c2sc3ncccc3c2-c2ccc(Cl)cc2)c1
0.0093 |  |  |  | Cc1cccc(S(=O)(=O)c2sc3ncccc3c2-c2ccc(Cl)cc2)c1
0.0091 |  |  |  | O=C(Nc1cccc(Cl)c1)O/N=C1\CCCCC1Cc1cccs1 (stereo unspecified)
0.009 |  | 1.6 | 0.4 | N#Cc1cccc(S(=O)(=O)c2sc3ncc(N)cc3c2-c2ccc(Cl)cc2)c1
0.0088 |  | 1.3 | 3.8 | N#Cc1cccc(S(=O)(=O)c2sc3ncc(N)cc3c2-c2ccc(F)cc2)c1
0.0083 | 0.048 | 1 | 1.4 | N#Cc1cccc(S(=O)(=O)c2sc3nc(F)ccc3c2-c2ccc(Cl)cc2)c1
0.0079 |  |  |  | COc1ccc(S(=O)(=O)c2sc3ncccc3c2-c2ccc(Cl)cc2)cc1F
0.0068 |  |  |  | Cc1ccc(S(=O)(=O)c2sc3ncccc3c2-c2ccc(Cl)cc2)cc1Cl
0.0048 |  | 1.9 | 13.9 | N#Cc1cccc(S(=O)(=O)c2sc3ncccc3c2-c2cccc(F)c2)c1
0.0045 |  | 2.1 | 9.6 | N#Cc1cccc(S(=O)(=O)c2sc3ncccc3c2-c2ccc(F)cc2)c1
0.0042 |  | 0.01 | 0.01 | N#Cc1cccc(S(=O)(=O)c2sc3ncc(N)cc3c2-c2cccc(F)c2)c1
0.0035 |  | 3.2 | 11.2 | N#Cc1cccc(S(=O)(=O)c2sc3ncccc3c2-c2ccccc2Cl)c1
0.0033 |  |  |  | Cc1ccc(S(=O)(=O)c2sc3ncccc3c2-c2ccc(Cl)cc2)cc1C
0.003 |  | 3.3 | 17.3 | Cc1ccc(-c2c(S(=O)(=O)c3cccc(C#N)c3)sc3ncccc23)cc1
0.0025 | 0.0049 | 0.6 | 2.9 | N#Cc1cc(F)cc(S(=O)(=O)c2sc3nc(F)ccc3c2-c2cccc(F)c2)c1
0.0024 | 0.0106 | 2.1 | 2.1 | N#Cc1cc(F)cc(S(=O)(=O)c2sc3ncccc3c2-c2ccc(F)cc2)c1
0.0022 | 0.0024 | 1.5 | 2.4 | N#Cc1cc(F)cc(S(=O)(=O)c2sc3ncccc3c2-c2cccc(F)c2)c1
0.0018 |  | 0.6 | 2.5 | N#Cc1cccc(S(=O)(=O)c2sc3ncc(N)cc3c2-c2ccccc2F)c1
0.0011 | 0.0015 | 2.4 | 3.5 | N#Cc1cc(F)cc(S(=O)(=O)c2sc3ncccc3c2-c2ccccc2F)c1

Reference: ChEMBL document CHEMBL3400086, “Thieno[2,3-b]pyridines as negative allosteric modulators of metabotropic GluR5 receptors: Lead optimization” (Bioorg Med Chem Lett, 2015)
